Substitutions are numbered along the chain they refer to. Like-named read-outs stand apart in the source and are kept apart here.
Legend:
androgen receptor = biological target: T1, androgen receptor (Homo sapiens, UniProt P10275); assay: AR Antagonist Cell Assay (MDA-MB453-MMTV clone 54-19, luciferase reporter); assay type: cell-based; settings: inhibition of induction by DHT (final concentration at 100 μM), 17 hr, compound 0.32-1000 nM, mean of multiple tests
T1 sequence (P10275 1-920 Q868H): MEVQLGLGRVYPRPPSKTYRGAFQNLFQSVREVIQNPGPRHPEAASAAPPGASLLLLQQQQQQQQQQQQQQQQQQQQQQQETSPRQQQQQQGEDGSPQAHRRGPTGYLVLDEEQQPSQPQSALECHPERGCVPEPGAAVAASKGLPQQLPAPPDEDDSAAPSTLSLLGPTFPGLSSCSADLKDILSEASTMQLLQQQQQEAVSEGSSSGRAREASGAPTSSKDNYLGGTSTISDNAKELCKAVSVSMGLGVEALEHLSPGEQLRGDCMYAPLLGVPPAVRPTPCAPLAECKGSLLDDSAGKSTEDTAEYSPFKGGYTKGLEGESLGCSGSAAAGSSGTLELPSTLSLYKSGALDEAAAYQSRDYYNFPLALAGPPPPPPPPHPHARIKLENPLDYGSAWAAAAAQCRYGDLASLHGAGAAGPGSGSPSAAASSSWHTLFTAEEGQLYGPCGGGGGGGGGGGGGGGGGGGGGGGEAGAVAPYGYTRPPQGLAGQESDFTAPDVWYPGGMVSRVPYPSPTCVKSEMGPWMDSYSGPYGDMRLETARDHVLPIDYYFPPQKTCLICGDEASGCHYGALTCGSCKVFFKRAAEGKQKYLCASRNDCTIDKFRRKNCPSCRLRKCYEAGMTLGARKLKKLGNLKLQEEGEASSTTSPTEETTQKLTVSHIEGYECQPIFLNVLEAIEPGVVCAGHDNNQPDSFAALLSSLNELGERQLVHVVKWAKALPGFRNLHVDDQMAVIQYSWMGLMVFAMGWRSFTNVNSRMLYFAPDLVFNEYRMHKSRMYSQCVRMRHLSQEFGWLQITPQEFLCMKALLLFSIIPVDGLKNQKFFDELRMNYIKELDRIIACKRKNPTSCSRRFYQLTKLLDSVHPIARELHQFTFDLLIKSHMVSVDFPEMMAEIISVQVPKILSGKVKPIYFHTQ
In short: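 MDA-MB453 breast tumour cells stably carrying an ARE-containing MMTV promoter driving firefly luciferase, plated overnight at 37° C in charcoal-treated serum medium. DHT added (final […]) and incubated 17 hr at 37° C. Luminescence read after adding luciferase buffer; values are means of multiple tests.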

hAR = biological target: T2, hAR (Homo sapiens, UniProt P10275); assay: Competitive binding of 3H-DHT to baculovirus/Sf9 generated hAR extracts; settings: one hour at 4° C., mean of multiple tests
T2 sequence (P10275 1-920): T1 sequence (P10275 1-920 Q868H) with H868Q
In short: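 Baculovirus/Sf9-expressed hAR extract incubated with test compound, hydroxylapatite and 1 nM 3H-DHT tracer for 1 h at 4° C, then washed free of unbound tracer. Affinity given as concentration inhibiting half of maximal 3H-DHT binding.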

[1] = concentration at which one half of maximum binding of 1 nM 3H-DHT to hAR is inhibited, read-out: IC50
[2] = IC50, concentration at which one half of maximum binding of 1 nM 3H-DHT to hAR is inhibited

Row | Structure (SMILES) | IC50 (androgen receptor) [nM] | IC50 (hAR; [1]) [nM] | IC50 (androgen receptor; read-out: IC50) [nM] | IC50 (hAR; [2]) [nM]
1 | Cc1ccc(-c2nnc(CN3CC(C)(C)C(Oc4ccc(C#N)c(C(F)(F)F)c4)C3=O)o2)cc1 (stereo not drawn) [Example 61, 4-[4,4-Dimethyl-2-oxo-1-(5-p-tolyl-[1,3,4]oxadiazol-2-ylmethyl)-pyrrolidin-3-yloxy]-2-trifluoromethyl-benzonitrile] | 51 | 101 |  | 
2 | CC1(C)CN(Cc2nc(-c3ccc([N+](=O)[O-])cc3)cs2)C(=O)C1Oc1ccc(C#N)c(C(F)(F)F)c1 (stereo not drawn) [Example 65, 4-{4,4-Dimethyl-1-[4-(4-nitro-phenyl)-thiazol-2-ylmethyl]-2-oxo-pyrrolidin-3-yloxy}-2-trifluoromethyl-benzonitrile] |  |  | 228 | 38
3 | COc1ccc(-c2nc(CN3CC(C)(C)C(Oc4ccc(C#N)c(C(F)(F)F)c4)C3=O)no2)cc1 (stereo not drawn) [Example 66, 4-{1-[5-(4-Methoxy-phenyl)-[1,2,4]oxadiazol-3-ylmethyl]-4,4-dimethyl-2-oxo-pyrrolidin-3-yloxy}-2-trifluoromethyl-benzonitrile] | 84 | 142 |  | 
4 | CSCN1CC(C)(C)C(Oc2ccc(C#N)c(C(F)(F)F)c2)C1=O (stereo not drawn) [Example 68, 4-(4,4-Dimethyl-1-methylsulfanylmethyl-2-oxo-pyrrolidin-3-yloxy)-2-trifluoromethyl-benzonitrile] | 64 | 133 |  | 
5 | CC1(C)CN(S(=O)(=O)c2ccccc2)C(=O)C1Oc1ccc(C#N)c(C(F)(F)F)c1 (stereo not drawn) [Example 73, 4-(1-Benzenesulfonyl-4,4-dimethyl-2-oxo-pyrrolidin-3-yloxy)-2-trifluoromethyl-benzonitrile] | 49 | 206 |  | 
6 | COc1cccc(S(=O)(=O)N2CC(C)(C)C(Oc3ccc(C#N)c(C(F)(F)F)c3)C2=O)c1 (stereo not drawn) [Example 74, 4-[1-(3-Methoxy-benzenesulfonyl)-4,4-dimethyl-2-oxo-pyrrolidin-3-yloxy]-2-trifluoromethyl-benzonitrile] | 96 | 106 |  | 
7 | CCCS(=O)(=O)N1CC(C)(C)C(Oc2ccc(C#N)c(C(F)(F)F)c2)C1=O (stereo not drawn) [Example 75, 4-[4,4-Dimethyl-2-oxo-1-(propane-1-sulfonyl)-pyrrolidin-3-yloxy]-2-trifluoromethyl-benzonitrile] | 16 |  |  | 64
8 | CCS(=O)(=O)N1CC(C)(C)C(Oc2ccc(C#N)c(C(F)(F)F)c2)C1=O (stereo not drawn) [Example 78, 4-(1-Ethanesulfonyl-4,4-dimethyl-2-oxo-pyrrolidin-3-yloxy)-2-trifluoromethyl-benzonitrile] |  | 103 | 246 | 
9 | CC1(C)CN(S(=O)(=O)C2CC2)C(=O)C1Oc1ccc(C#N)c(C(F)(F)F)c1 (stereo not drawn) [Example 83, 4-(1-Cyclopropanesulfonyl-4,4-dimethyl-2-oxo-pyrrolidin-3-yloxy)-2-trifluoromethyl-benzonitrile] |  |  | 205 | 50
10 | CC1(C)CN(S(=O)(=O)c2ccsc2)C(=O)C1Oc1ccc(C#N)c(C(F)(F)F)c1 (stereo not drawn) [Example 84, 4-[4,4-Dimethyl-2-oxo-1-(thiophene-3-sulfonyl)-pyrrolidin-3-yloxy]-2-trifluoromethyl-benzonitrile] | 55 |  |  | 85
11 | Cc1csc(S(=O)(=O)N2CC(C)(C)C(Oc3ccc(C#N)c(C(F)(F)F)c3)C2=O)c1 (stereo not drawn) [Example 86, 4-[4,4-Dimethyl-1-(4-methyl-thiophene-2-sulfonyl)-2-oxo-pyrrolidin-3-yloxy]-2-trifluoromethyl-benzonitrile] |  | 140 | 105 | 
12 | Cc1ccsc1S(=O)(=O)N1CC(C)(C)C(Oc2ccc(C#N)c(C(F)(F)F)c2)C1=O (stereo not drawn) [Example 87, 4-[4,4-Dimethyl-1-(3-methyl-thiophene-2-sulfonyl)-2-oxo-pyrrolidin-3-yloxy]-2-trifluoromethyl-benzonitrile] |  | 115 | 502 | 
13 | CC1(C)CN(S(=O)(=O)c2cccc(C#N)c2)C(=O)C1Oc1ccc(C#N)c(C(F)(F)F)c1 (stereo not drawn) [Example 88, 4-[1-(3-Cyano-benzenesulfonyl)-4,4-dimethyl-2-oxo-pyrrolidin-3-yloxy]-2-trifluoromethyl-benzonitrile] |  | 110 | 134 | 
14 | CC1(C)CN(S(=O)(=O)c2cccs2)C(=O)C1Oc1ccc(C#N)c(C(F)(F)F)c1 (stereo not drawn) [Example 93, 4-[4,4-Dimethyl-2-oxo-1-(thiophene-2-sulfonyl)-pyrrolidin-3-yloxy]-2-trifluoromethyl-benzonitrile] |  |  | > 1000 | 82
15 | Cc1ccccc1S(=O)(=O)N1CC(C)(C)C(Oc2ccc(C#N)c(C(F)(F)F)c2)C1=O (stereo not drawn) [Example 94, 4-[4,4-Dimethyl-2-oxo-1-(toluene-2-sulfonyl)-pyrrolidin-3-yloxy]-2-trifluoromethyl-benzonitrile] |  | 150 | > 1000 | 
16 | CC1(C)CN(S(=O)(=O)c2cccc(O)c2)C(=O)C1Oc1ccc(C#N)c(C(F)(F)F)c1 (stereo not drawn) [Example 95, 4-[1-(3-Hydroxy-benzenesulfonyl)-4,4-dimethyl-2-oxo-pyrrolidin-3-yloxy]-2-trifluoromethyl-benzonitrile] |  |  | > 1000 | 8
17 | CC1(C)CN(C2CCCC2)C(=O)C1Oc1ccc(C#N)c(C(F)(F)F)c1 (stereo not drawn) [Example 98, 4-(1-Cyclopentyl-4,4-dimethyl-2-oxo-pyrrolidin-3-yloxy)-2-trifluoromethyl-benzonitrile] |  | 169 | 315 | 
18 | CSCN1CC(C)(C)C(Oc2ccc(C#N)c(C(F)(F)F)c2)C1=O (stereo not drawn) [Example 99, 4-(4,4-Dimethyl-1-methylsulfanylmethyl-2-oxo-pyrrolidin-3-yloxy)-2-trifluoromethyl-benzonitrile] | 36 | 113 |  | 
19 | CC1(C)CN(C(=O)Cc2ccccc2)C(=O)C1Oc1ccc(C#N)c(C(F)(F)F)c1 (stereo not drawn) [Example 101, 4-(4,4-Dimethyl-2-oxo-1-phenylacetyl-pyrrolidin-3-yloxy)-2-trifluoromethyl-benzonitrile] |  | 174 | 83 | 
20 | CC1(C)CN(C(=O)c2ccc(C#N)cc2)C(=O)C1Oc1ccc(C#N)c(C(F)(F)F)c1 (stereo not drawn) [Example 104, 4-[1-(4-Cyano-benzoyl)-4,4-dimethyl-2-oxo-pyrrolidin-3-yloxy]-2-trifluoromethyl-benzonitrile] | 37 | 248 |  | 
21 | CC1(C)CN(C(=O)c2cccc(C#N)c2)C(=O)C1Oc1ccc(C#N)c(C(F)(F)F)c1 (stereo not drawn) [Example 107, 4-[1-(3-Cyano-benzoyl)-4,4-dimethyl-2-oxo-pyrrolidin-3-yloxy]-2-trifluoromethyl-benzonitrile] |  |  | 653 | 68

— patent US7674819B2 (Warner-Lambert Company LLC, priority 2005, dated 2010)
